Reference: patent publication US8470380B2, “Polyphenol extraction process” (Coressence Limited, priority 2006, dated 2013)

Columns and labels:
[1] = (−)-Epicatechin isomerisation test (heating of an epicatechin test solution, HPLC); type: physicochemical; conditions: for Epicatechin / Epicatechin % remain: 0.688 mg/ml epicatechin solution, nitrogen-flushed sealed vial; for Other % of start / Other: calculated from 100 − (epicatechin + catechin); for Other: unit assumed; for Catechin / Catechin % of start: formed from 0.688 mg/ml epicatechin
Method: In order to test the possibility that epicatechin was isomerising to catechin at higher temperatures, a test solution of 0.688 mg/ml epicatechin was produced and treated as follows: 950 μl of epicatechin was transferred to an auto sampler vial, which was flushed with nitrogen and sealed. The vial was then placed in an oven at a given temperature, for a set time period. The vial was then cooled, the seal removed and 50 μl of internal standard added before analysis. Tests were carried out at 50, 75, 100 and 125° C. for 15 and 30 minutes. Tests were not carried out at 150° C. as the vials are not capable of withstanding the pressure that would be generated.

[2] = Comparison of ethanol extraction with methanol (solubility of epicatechin); type: physicochemical; conditions: ethanol compared with methanol; implied by extraction data of Table 11
Method: A comparative extract using 1 g of apple powder and 10 ml methanol gave a figure of 4663 mg/Kg. In order to test if the low recovery figure above was due to low solubility of epicatechin in ethanol a series of tests were performed using 10, 20 and 30:1 w/w.

- Epicatechin ([1]; 50° C. 15 min): 0.643 mg/mL
- Epicatechin % remain ([1]; 50° C. 15 min): 93.53%
- Epicatechin ([1]; 50° C. 30 min): 0.601 mg/mL
- Epicatechin % remain ([1]; 50° C. 30 min): 87.40%
- Epicatechin ([1]; 75° C. 15 min): 0.550 mg/mL
- Epicatechin % remain ([1]; 75° C. 15 min): 79.92%
- Epicatechin ([1]; 75° C. 30 min): 0.441 mg/mL
- Epicatechin % remain ([1]; 75° C. 30 min): 64.07%
- Epicatechin ([1]; 100° C. 15 min): 0.254 mg/mL
- Epicatechin % remain ([1]; 100° C. 15 min): 36.97%
- Epicatechin ([1]; 100° C. 30 min): 0.164 mg/mL
- Epicatechin % remain ([1]; 100° C. 30 min): 23.88%
- Epicatechin ([1]; 125° C. 15 min): 0.156 mg/mL
- Epicatechin % remain ([1]; 125° C. 15 min): 22.71%
- Epicatechin ([1]; 125° C. 30 min): 0.139 mg/mL
- Epicatechin % remain ([1]; 125° C. 30 min): 20.27%
- Other % of start ([1]; 50° C. 15 min): 5.40%
- Other ([1]; 50° C. 15 min): 0.037 mg/mL
- Other % of start ([1]; 50° C. 30 min): 10.79%
- Other ([1]; 50° C. 30 min): 0.074 mg/mL
- Other % of start ([1]; 75° C. 15 min): 10.59%
- Other ([1]; 75° C. 15 min): 0.073 mg/mL
- Other % of start ([1]; 75° C. 30 min): 19.65%
- Other ([1]; 75° C. 30 min): 0.135 mg/mL
- Other % of start ([1]; 100° C. 15 min): 16.36%
- Other ([1]; 100° C. 15 min): 0.113 mg/mL
- Other % of start ([1]; 100° C. 30 min): 26.07%
- Other ([1]; 100° C. 30 min): 0.179 mg/mL
- Other % of start ([1]; 125° C. 15 min): 27.94%
- Other ([1]; 125° C. 15 min): 0.192 mg/mL
- Other % of start ([1]; 125° C. 30 min): 36.13%
- Other ([1]; 125° C. 30 min): 0.249 mg/mL
- Catechin ([1]; 50° C. 15 min): 0.007 mg/mL
- Catechin % of start ([1]; 50° C. 15 min): 1.07%
- Catechin ([1]; 50° C. 30 min): 0.012 mg/mL
- Catechin % of start ([1]; 50° C. 30 min): 1.81%
- Catechin ([1]; 75° C. 15 min): 0.065 mg/mL
- Catechin % of start ([1]; 75° C. 15 min): 9.49%
- Catechin ([1]; 75° C. 30 min): 0.112 mg/mL
- Catechin % of start ([1]; 75° C. 30 min): 16.28%
- Catechin ([1]; 100° C. 15 min): 0.321 mg/mL
- Catechin % of start ([1]; 100° C. 15 min): 46.68%
- Catechin ([1]; 100° C. 30 min): 0.344 mg/mL
- Catechin % of start ([1]; 100° C. 30 min): 50.05%
- Catechin ([1]; 125° C. 15 min): 0.340 mg/mL
- Catechin % of start ([1]; 125° C. 15 min): 49.36%
- Catechin ([1]; 125° C. 30 min): 0.300 mg/mL
- Catechin % of start ([1]; 125° C. 30 min): 43.60%
- isomerisation of (−)-epicatechin ([1]; temperatures above 100° C.): rapid isomerisation
Substance: epicatechin
- solubility of epicatechin [2]: lower solubility in ethanol than in methanol
